Values of other authors in US5032586A, “7-keto or hydroxy 3,5-diene steroids as inhibitors of steroid 5-alpha reductase” (SmithKline Beecham Corporation, priority 1989, dated 1991).

Test system: 5-α-Reductase
Conditions: for Type of inhibition (Reversible/Irreversible): Table 1, printed with Ki; for Ki: literature values, Table 1

C=C1C[C@@H]2[C@H](CC[C@@]3(C)[C@H]2CC[C@]3(OC(C)=O)C(C)=O)[C@@]2(C)CCC(=O)C=C12 [(5)]
Type of inhibition (Reversible/Irreversible): Irreversible | Inhibition of steroid 5-α-reductase, in words (literature description): timedependent inactivator of steroid 5-α-reductase | Ki: 1250 nM

CCN(CC)C(=O)[C@H]1CC[C@H]2[C@@H]3CC[C@H]4N(C)C(=O)CC[C@]4(C)[C@H]3CC[C@]12C [(4)]
Type of inhibition (Reversible/Irreversible): Reversible | Ki: 5 nM
